The results in this text go back to patent US10640506B2, “Cyclobutyl substituted pyrrolopyridine and pyrrolopyrimidines derivatives as JAK inhibitors” (Incyte Corporation, priority 2010, dated 2020).

For assay [1], the target named is human JAK1 (a.a. 837-1142) (Homo sapiens, UniProt P23458). Put plainly: In vitro JAK kinase assay (HTRF, phosphorylation of biotinylated peptide), JAK1. The format is biochemical. The note with it: 1 mM ATP. As to the method:
Compounds herein were tested for inhibitory activity of JAK targets according to the following in vitro assay described in Park et al., Analytical Biochemistry 1999, 269, 94-104. The catalytic domains of human JAK1 (a.a. 837-1142) and JAK2 (a.a. 828-1132) with an N-terminal His tag were expressed using baculovirus in insect cells and purified. The catalytic activity of JAK1 and JAK2 was assayed by measuring the phosphorylation of a biotinylated peptide. The phosphorylated peptide was detected by homogenous time resolved fluorescence (HTRF). […] Reactions were carried out at room temperature for 1 hour and then stopped with 20 μL 45 mM EDTA, 300 nM SA-APC, 6 nM Eu-Py20 in assay buffer (Perkin Elmer, Boston, Mass.). Binding to the Europium labeled antibody took place for 40 minutes and HTRF signal was measured on a Fusion plate reader (Perkin Elmer, Boston, Mass.). […] Data is indicated as ranges, wherein “+” is less than 10 nM; “++” is 10 nM to 25 nM; “+++” is greater than 25 nM to 100 nM; and “++++” is greater than 100 nM. Greater than 25 nM to 100 nM specifies a range with a lower endpoint “at greater than 25 nM” and an upper endpoint at 100 nM.

The target of assay [2] is T1, JAK2 (a.a. 828-1132) (Homo sapiens, UniProt O60674).
T1 construct: JAK2 (a.a. 828-1132); His tag (N)
The assay is described as follows: In vitro JAK kinase assay (HTRF, phosphorylation of biotinylated peptide), JAK2. The format is biochemical. The note with it: 1 mM ATP. The protocol:
Compounds herein were tested for inhibitory activity of JAK targets according to the following in vitro assay described in Park et al., Analytical Biochemistry 1999, 269, 94-104. The catalytic domains of human JAK1 (a.a. 837-1142) and JAK2 (a.a. 828-1132) with an N-terminal His tag were expressed using baculovirus in insect cells and purified. The catalytic activity of JAK1 and JAK2 was assayed by measuring the phosphorylation of a biotinylated peptide. The phosphorylated peptide was detected by homogenous time resolved fluorescence (HTRF). […] Reactions were carried out at room temperature for 1 hour and then stopped with 20 μL 45 mM EDTA, 300 nM SA-APC, 6 nM Eu-Py20 in assay buffer (Perkin Elmer, Boston, Mass.). Binding to the Europium labeled antibody took place for 40 minutes and HTRF signal was measured on a Fusion plate reader (Perkin Elmer, Boston, Mass.). See Tables A-F for data related to compounds of the Examples (at 1 mM). Data is indicated as ranges, wherein “+” is less than 10 nM; “++” is 10 nM to 25 nM; “+++” is greater than 25 nM to 100 nM; and “++++” is greater than 100 nM. Greater than 25 nM to 100 nM specifies a range with a lower endpoint “at greater than 25 nM” and an upper endpoint at 100 nM.
On the technique in general: In TR-FRET formats the signal depends on donor and acceptor labels being close together.

In general, IC50 refers to the concentration that inhibits the measured activity by half.

Like-named read-outs stand apart in the source and are kept apart here. Some results are limits rather than exact numbers.

T1 sequence (O60674 828-1132): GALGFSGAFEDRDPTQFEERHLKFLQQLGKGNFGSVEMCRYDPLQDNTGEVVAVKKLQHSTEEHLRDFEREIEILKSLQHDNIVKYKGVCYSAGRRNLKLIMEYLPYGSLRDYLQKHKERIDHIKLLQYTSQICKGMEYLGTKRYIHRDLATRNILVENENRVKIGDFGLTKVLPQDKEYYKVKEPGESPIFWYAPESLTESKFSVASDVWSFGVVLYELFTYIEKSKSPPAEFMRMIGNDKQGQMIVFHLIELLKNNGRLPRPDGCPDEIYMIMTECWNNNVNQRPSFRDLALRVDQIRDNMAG
Chain of human JAK1 (a.a. 837-1142) (P23458 849-1154): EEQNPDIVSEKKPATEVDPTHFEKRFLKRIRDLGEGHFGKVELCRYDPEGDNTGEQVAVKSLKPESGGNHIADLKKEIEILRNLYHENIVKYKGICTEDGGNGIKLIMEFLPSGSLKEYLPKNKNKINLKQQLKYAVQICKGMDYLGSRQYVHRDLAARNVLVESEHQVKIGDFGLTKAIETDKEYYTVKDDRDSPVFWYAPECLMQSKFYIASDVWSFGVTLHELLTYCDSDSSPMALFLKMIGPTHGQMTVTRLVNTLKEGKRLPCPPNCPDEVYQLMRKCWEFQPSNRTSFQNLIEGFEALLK

As to `CN(C)Cc1cc(F)cc(CN2CCN([C@H]3C[C@](CC#N)(n4cc(-c5ncnc6[nH]ccc56)cn4)C3)CC2)c1` [Example 34, {trans-3-(4-{3-[(dimethylamino)methyl]-5-fluorobenzyl}piperazin-1-yl)-1-[4-(7H-pyrrolo[2,3-d]pyrimidin-4-yl)-1H-pyrazol-1-yl]cyclobutyl}acetonitrile], the IC50 in assay [1] (Table B, read-out: JAK1 IC50) was below 10 nM; in assay [2] (Table B, read-out: JAK2 IC50) it was 10 to 25 nM.

In the case of `N#CC[C@]1(n2cc(-c3ncnc4[nH]ccc34)cn2)C[C@H](N2CCN(C(=O)c3cc(C4(N)CCC4)nc(C(F)(F)F)n3)CC2)C1` [Example 61, {trans-3-(4-{[6-(1-aminocyclobutyl)-2-(trifluoromethyl)pyrimidin-4-yl]carbonyl}piperazin-1-yl)-1-[4-(7H-pyrrolo[2,3-d]pyrimidin-4-yl)-1H-pyrazol-1-yl]cyclobutyl}acetonitrile], the IC50 in assay [1] (Table F) and in assay [2] (Table F) was below 10 nM in each case.

As to `N#CC[C@]1(n2cc(-c3ncnc4[nH]ccc34)cn2)C[C@H](N2CCN(C(=O)c3nc(C(F)(F)F)cs3)CC2)C1` [Example 13b, [trans-1-[4-(7H-pyrrolo[2,3-d]pyrimidin-4-yl)-1H-pyrazol-1-yl]-3-(4-{[4-(trifluoromethyl)-1,3-thiazol-2-yl]carbonyl}piperazin-1-yl)cyclobutyl]acetonitrile], the 50% inhibitory concentration (IC50) was below 10 nM in assay [1] (Table B, read-out: JAK1 IC50) and 25 to 100 nM in assay [2] (Table B, read-out: JAK2 IC50).

For `N#CC[C@]1(n2cc(-c3ncnc4[nH]ccc34)cn2)C[C@H](N2CCN(C(=O)c3cc(CN4CCCC4)nc(C(F)(F)F)n3)CC2)C1` [Example 53, {trans-3-(4-{[6-(pyrrolidin-1-ylmethyl)-2-(trifluoromethyl)pyrimidin-4-yl]carbonyl}piperazin-1-yl)-1-[4-(7H-pyrrolo[2,3-d]pyrimidin-4-yl)-1H-pyrazol-1-yl]cyclobutyl}acetonitrile], the values for the IC50 in assay [1] (Table F) and in assay [2] (Table F) were below 10 nM and 25 to 100 nM, respectively.

On to `CC(C)c1nccc(C(=O)N2CCN([C@H]3C[C@@](CC#N)(n4cc(-c5ncnc6[nH]ccc56)cn4)C3)CC2)n1` [Example 24a, {cis-3-{4-[(2-isopropylpyrimidin-4-yl)carbonyl]piperazin-1-yl}-1-[4-(7H-pyrrolo[2,3-d]pyrimidin-4-yl)-1H-pyrazol-1-yl]cyclobutyl}acetonitrile], for which the IC50 in assay [1] (Table A, read-out: JAK1 IC50) is 10 to 25 nM; in assay [2] (Table A, read-out: JAK2 IC50), above 100 nM.

For the compound `N#CC[C@]1(n2cc(-c3ncnc4[nH]ccc34)cn2)C[C@H](N2CCN(C(=O)c3cc(CO)cc(C(F)(F)F)n3)CC2)C1` [Example 66, {trans-3-(4-{[4-(hydroxymethyl)-6-(trifluoromethyl)pyridin-2-yl]carbonyl}piperazin-1-yl)-1-[4-(7H-pyrrolo[2,3-d]pyrimidin-4-yl)-1H-pyrazol-1-yl]cyclobutyl}acetonitrile], the IC50 in assay [1] (Table F) is below 10 nM; in assay [2] (Table F), 25 to 100 nM.

As to `N#CC[C@]1(n2cc(-c3ncnc4[nH]ccc34)cn2)C[C@H](N2CCN(C(=O)N3CCCC3)CC2)C1` [Example 19, {trans-3-[4-(pyrrolidin-1-ylcarbonyl)piperazin-1-yl]-1-[4-(7H-pyrrolo[2,3-d]pyrimidin-4-yl)-1H-pyrazol-1-yl]cyclobutyl}acetonitrile], the IC50 in assay [1] (Table B, read-out: JAK1 IC50) is 10 to 25 nM; in assay [2] (Table B, read-out: JAK2 IC50), above 100 nM.

With `CCS(=O)(=O)N1CCN([C@H]2C[C@](CC#N)(n3cc(-c4ncnc5[nH]ccc45)cn3)C2)CC1` [Example 35, {trans-3-[4-(ethylsulfonyl)piperazin-1-yl]-1-[4-(7H-pyrrolo[2,3-d]pyrimidin-4-yl)-1H-pyrazol-1-yl]cyclobutyl}acetonitrile], the IC50 in assay [2] (Table B, read-out: JAK2 IC50) is below 10 nM.
